Measurements published in ChEMBL document CHEMBL1201862, “PubChem BioAssay data set” (2004).
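Each compound was tested at five concentrations against cells in 96-well plates for 48 hours. GI50 is the concentration that inhibits growth by half.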 The source made the active and inactive calls. Rule as the data show it: active = GI50 up to about 1.1 µM and inactive = higher.

Legend:
Assay in all cases: NCI tumour cell line growth inhibition, 48 h
RXF 631 = test system: RXF 631
XF498 = test system: XF498
DMS-273 = test system: DMS-273
LXFL 529 = test system: LXFL 529
M19-MEL = test system: M19-MEL
DLD-1 = test system: DLD-1
HOP-18 = test system: HOP-18
SNB-78 = test system: SNB-78
DMS-114 = test system: DMS-114

Structure (SMILES)	GI50 (RXF 631)	GI50 (XF498)	GI50 (DMS-273)	GI50 (LXFL 529)	GI50 (M19-MEL)	GI50 (DLD-1)	GI50 (HOP-18)	GI50 (SNB-78)	GI50 (DMS-114)
Cc1ccc(/N=C/c2ccc3c(c2)OCO3)cc1C	> 100 µM (inactive)	> 100 µM (inactive)	> 100 µM (inactive)	> 100 µM (inactive)	> 100 µM (inactive)	> 100 µM (inactive)	> 100 µM (inactive)	> 100 µM (inactive)	–
CN(C)CCNc1ccc2ncn3c4ccc(O)cc4c(=O)c1c23	–	4.13 µM (inactive)	0.317 µM (active)	1.41 µM (inactive)	1.09 µM (active)	1.08 µM (active)	10.6 µM (inactive)	3.03 µM (inactive)	0.526 µM (active)
CCOc1ccc(/C=N\N2C(=O)c3ccccc3C2=O)cc1	> 100 µM (inactive)	> 100 µM (inactive)	> 100 µM (inactive)	> 100 µM (inactive)	> 100 µM (inactive)	> 100 µM (inactive)	> 100 µM (inactive)	> 100 µM (inactive)	> 100 µM (inactive)
O=C(O)CC1CC=C[C@H]2c3cc4c(cc3C(=O)NC12)OCO4 (some centres undefined)	–	–	> 75 µM (inactive)	> 75 µM (inactive)	> 75 µM (inactive)	> 75 µM (inactive)	–	> 75 µM (inactive)	> 75 µM (inactive)
Cc1cc(NS(=O)(=O)c2ccc(NC(=O)c3cccc4c(=O)c5ccccc5[nH]c34)cc2)no1	–	13.6 µM (inactive)	–	15.7 µM (inactive)	39.4 µM (inactive)	61.4 µM (inactive)	10.2 µM (inactive)	38.7 µM (inactive)	46 µM (inactive)
O/N=C/c1ccc(O)c(O)c1	–	> 100 µM (inactive)	62.5 µM (inactive)	84.9 µM (inactive)	> 100 µM (inactive)	> 100 µM (inactive)	–	> 100 µM (inactive)	14.7 µM (inactive)
O=C1NN=CN2C(=O)CCC12 (centres undefined)	> 100 µM (inactive)	> 100 µM (inactive)	> 100 µM (inactive)	> 100 µM (inactive)	> 100 µM (inactive)	> 100 µM (inactive)	–	> 100 µM (inactive)	> 100 µM (inactive)
CCOC(=O)c1sc2c(C(=O)OCC)n3ccccc3c2c1N	–	25.3 µM (inactive)	53.6 µM (inactive)	–	> 100 µM (inactive)	82.2 µM (inactive)	> 100 µM (inactive)	50.9 µM (inactive)	40.6 µM (inactive)
CCCN(CCC)C(=O)c1nc(N)nc(-c2ccc(OC)cc2)c1-c1ccc(OC)cc1	> 100 µM (inactive)	> 100 µM (inactive)	> 100 µM (inactive)	82 µM (inactive)	–	> 100 µM (inactive)	46.7 µM (inactive)	80.5 µM (inactive)	84.9 µM (inactive)
CC(=O)Nc1ccc(S(=O)(=O)N/N=C/c2cc(I)cc([N+](=O)[O-])c2O)cc1	> 100 µM (inactive)	24.1 µM (inactive)	62.4 µM (inactive)	–	66.4 µM (inactive)	> 100 µM (inactive)	27.7 µM (inactive)	37 µM (inactive)	50.8 µM (inactive)
O=c1oc2c3ccc4ccccc4c3n(Cc3nc4ccccc4[nH]3)c2c2ccccc12	–	–	–	9.66 µM (inactive)	5.46 µM (inactive)	5.73 µM (inactive)	7.57 µM (inactive)	> 100 µM (inactive)	4.95 µM (inactive)
COc1cc(O)c(C(=O)/C=C/c2ccc(OC)c(OCc3ccccc3)c2)c(OC)c1	–	> 100 µM (inactive)	0.175 µM (active)	5.45 µM (inactive)	> 100 µM (inactive)	> 100 µM (inactive)	> 100 µM (inactive)	2.57 µM (inactive)	–
CCCCN/C(=N/C#N)NCc1ccccc1	–	> 100 µM (inactive)	> 100 µM (inactive)	> 100 µM (inactive)	> 100 µM (inactive)	> 100 µM (inactive)	–	> 100 µM (inactive)	–
O=c1cc(-c2ccc(O)cc2)oc2cc(O)cc(O)c12 [APIGENIN]	–	24.2 µM (inactive)	18.6 µM (inactive)	18.2 µM (inactive)	33.5 µM (inactive)	–	–	17.5 µM (inactive)	32.3 µM (inactive)
CN(C)CC/C(=N\Nc1c(Cl)cccc1Cl)c1ccccc1	–	–	16.8 µM (inactive)	14.8 µM (inactive)	18.3 µM (inactive)	31.1 µM (inactive)	15.1 µM (inactive)	16.7 µM (inactive)	17.3 µM (inactive)
CC(=O)OCCc1cccnc1/C=N/O	–	> 100 µM (inactive)	> 100 µM (inactive)	> 100 µM (inactive)	> 100 µM (inactive)	> 100 µM (inactive)	> 100 µM (inactive)	> 100 µM (inactive)	> 100 µM (inactive)
CS(=O)(=O)OCCN1CCN(C(=O)c2cccc3c(Nc4ccc(S(N)(=O)=O)cc4)c4ccccc4nc23)CC1	> 100 µM (inactive)	> 100 µM (inactive)	> 100 µM (inactive)	> 100 µM (inactive)	> 81.8 µM (inactive)	> 46.8 µM (inactive)	> 100 µM (inactive)	> 100 µM (inactive)	> 42.2 µM (inactive)
Cc1cc(N(CCC#N)CCC#N)ccc1/N=N/c1ccc(C(=O)O)cc1	–	> 100 µM (inactive)	> 100 µM (inactive)	> 100 µM (inactive)	> 100 µM (inactive)	–	58.9 µM (inactive)	> 100 µM (inactive)	> 100 µM (inactive)
COc1cc(-c2cc(-c3cc([N+](=O)[O-])c(/C=N/NC(=O)c4ccncc4)o3)ccc2OC)ccc1C	> 100 µM (inactive)	> 100 µM (inactive)	–	> 100 µM (inactive)	> 100 µM (inactive)	> 100 µM (inactive)	–	–	–
N#CC1C(=O)NC(=O)C1=O (centres undefined)	> 100 µM (inactive)	> 100 µM (inactive)	> 100 µM (inactive)	> 100 µM (inactive)	> 100 µM (inactive)	–	> 100 µM (inactive)	> 100 µM (inactive)	> 100 µM (inactive)
CC12CC(=O)OC(Cc3ccccc31)O2 (centres undefined)	–	> 100 µM (inactive)	> 100 µM (inactive)	> 100 µM (inactive)	> 100 µM (inactive)	> 100 µM (inactive)	> 100 µM (inactive)	> 100 µM (inactive)	> 100 µM (inactive)
CCN(CC)CCCNc1ccc2nc(C)n3c4ccc(O)cc4c(=O)c1c23	3.79 µM (inactive)	6.81 µM (inactive)	0.619 µM (active)	3.22 µM (inactive)	10.6 µM (inactive)	1.2 µM (inactive)	12.4 µM (inactive)	5.35 µM (inactive)	5.41 µM (inactive)
COC(=O)[C@@]12OC[C@]34C([C@@H](O)C1O)[C@@]1(C)CC(=O)C(O)=C(C)C1C[C@H]3OC(=O)[C@H](OC(=O)CC(C)C(F)(F)F)[C@H]42 (some centres undefined)	–	0.00522 µM (active)	0.00693 µM (active)	0.00731 µM (active)	0.0164 µM (active)	0.0877 µM (active)	0.308 µM (active)	0.206 µM (active)	0.00948 µM (active)
O=C1CCC2CCOc3ccc(O)c1c32 (centres undefined)	> 100 µM (inactive)	–	> 100 µM (inactive)	–	> 100 µM (inactive)	> 100 µM (inactive)	–	> 100 µM (inactive)	> 100 µM (inactive)
CCOC(=O)C(=O)Nc1nc2c(s1)C(=O)c1ccccc1C2=O	12.3 µM (inactive)	13.9 µM (inactive)	19.6 µM (inactive)	13.4 µM (inactive)	2.49 µM (inactive)	15.3 µM (inactive)	–	11.6 µM (inactive)	3.6 µM (inactive)
